Source: patent US8143254B2, “Methods for modulating ion channels” (Cornell Research Foundation, Inc., priority 2005, dated 2012)

Key:
[1] = system: Kv3.4; assay: TEVC of X. laevis oocytes expressing Kv3.4; format: cell-based; settings: for mean inhibition at 0 mV relative to +50 mV: Kv3.4, voltage dependence of block
Source text: Kv2.1 mutants were constructed using the QuickChange Multi Site-Directed Mutagenesis Kit (Stratagene, La Jolla, Calif.). […] For oocyte expression, Kv3.4 was in pBF1, Kv4.2 was in pRAT. cRNA transcripts were produced from SacII-linearized (Kv2.1), Mlullinearized (Kv3.4) and Not1-linearized (Kv4.2) DNA templates using the T3 (Kv2.1), SP6 (Kv3.4) and T7 (Kv4.2) mMessage mMachine kits (Ambion, Austin, Tex.). cRNA was quantified by spectrophotometry and its size integrity verified by gel electophoresis. Defolliculated stage V and VI Xenopus laevis oocytes (purchased from Nasco, Grand Island, N.Y.) were injected with 5 ng of cRNA encoding Kv2.1, Kv3.4 or Kv4.2. Chinese Hamster Ovary (CHO) cells were transfected with 0.25 μg Kv2.1 cDNA, 2 μg blank plasmid and 2 μg Green fluorescent Protein in pBOB using Supetfect transfection reagent (Qiagen) 24 hours before whole-cell voltage clamp studies.
Oocytes were bathed in a small-volume Warner oocyte bath and viewed with a Fisher dissection microscope. Bath solution for whole-cell oocyte recordings was (in mM): 96 NaCl, 4 KCl, 0.7 MgCl2, 1 CaCl2, 10 HEPES (pH 7.4); whole-cell oocyte TEVC pipettes were of 0.2-2 M resistance when filled with 3 M KCl. Experiments were performed 24-48 hours after cRNA injection. For assessment of current-voltage relationships in the absence or presence of dabco derivatives, oocytes were held at −80 mV, stepped for 2 seconds at voltages between −80 mV and +60 mV in 20 mV steps (Kv2.1) or between −80 and +50 mV in 10 mV steps (Kv3.4), then held for 500 ms at −40 mV before returning to the holding potential. For assessment of block during wash-in of dabco derivatives at a single voltage, oocytes were held at −80 mV, and repetitively stepped to 0 mV for 2 s with an interpulse interval of 10 s or 60 s as indicated. A range of concentrations of dabco or dabco derivatives were washed in via the bath solution during repetitive single-voltage pulses (after an initial period of 5 pulses with control solution to ensure current stabilization) until equilibrium block was achieved, to establish dose-responses. […] Washout was performed after the highest concentration of blocker was washed in. In cases where washout was achieved, only those recordings in which current returned to within 10% of original current level were used for construction of dose-response curves. […] As controls for this protection analysis, JC638.2a or MTSET were washed in alone until equilibrium block, then washed out.
Data analysis: Current-voltage relationships were obtained by measuring peak current during depolarizing pulses. Inhibition constants for DABCO blockers were calculated after generating a dose response curve by fitting with a logistic dose-response function y=A2+[A1−A2/1+(x/x0)^p], where A1 is the maximum response plateau, A2 is the minimum response plateau, x is drug concentrator, x0 is the IC50, and p the Hill slope. Data analysis was performed using […] 9 (Axon Instruments, Foster City, Calif.) and tabulated in Excel 5.0. Graphs were generated using Origin 6.1. Data are expressed as mean±SEM, with n specifying the number of independent experiments. Statistical significance was assessed by one-way ANOVA with p<0.05 being indicative of significance.

[2] = system: oocytes; assay: Toxicity / nonspecific leak in oocytes during dose-response recording; format: cell-based, Xenopus laevis
Procedure: Whole-cell two-electrode voltage-clamp (TEVC) recordings were performed on X laevis oocytes expressing cloned Kv2.1, Kv3.4 or Kv4.2 using a Warner OC-725C amplifier and pClamp9 (Axon Instruments, Foster City, Calif.) software. Oocytes were bathed in a small-volume Warner oocyte bath and viewed with a Fisher dissection microscope. Bath solution for whole-cell oocyte recordings was (in mM): 96 NaCl, 4 KCl, 0.7 MgCl2, 1 CaCl2, 10 HEPES (pH 7.4); whole-cell oocyte TEVC pipettes were of 0.2-2 M resistance when filled with 3 M KCl. Experiments were performed 24-48 hours after cRNA injection. For assessment of current-voltage relationships in the absence or presence of dabco derivatives, oocytes were held at −80 mV, stepped for 2 seconds at voltages between −80 mV and +60 mV in 20 mV steps (Kv2.1) or between −80 and +50 mV in 10 mV steps (Kv3.4), then held for 500 ms at −40 mV before returning to the holding potential. For assessment of block during wash-in of dabco derivatives at a single voltage, oocytes were held at −80 mV, and repetitively stepped to 0 mV for 2 s with an interpulse interval of 10 s or 60 s as indicated. […]

CCCCCCCCCCCC[N+]12CCN(CC1)CC2 [JE188, 1-aza-4-azonia-4-dodecylbicyclo[2.2.2]octane]
inhibition of Kv3.4 ([1]; 50 μM): significantly inhibited | inhibition of Kv3.4 ([1]; 250 μM): almost complete inhibition | mean inhibition at 0 mV relative to +50 mV [1]: 2 fold

C(CC[N+]12CCN(CC1)CC2)C[N+]12CCN(CC1)CC2 [TG26]
toxicity to oocytes ([2]; doses required to produce >50% block): toxic to the oocytes

CCCCCCCCCCCCCCCC[N+]12CCN(CC1)CC2 [TA279, 1-aza-4-azonia-4-hexadecylbicyclo[2.2.2]octane]
inhibition of Kv3.4 ([1]; 1 μM): inhibiting | inhibition of Kv3.4 ([1]; 5 mM): almost complete inhibition | mean inhibition at 0 mV relative to +50 mV [1]: 1.5 fold | sensitivity of Kv3.4 channels to compound relative to externally-applied TEA ([1]; externally applied): 500 fold

C(CCCC[N+]12CCN(CC1)CC2)CCC[N+]12CCN(CC1)CC2 [TG27, 1,8-[bis(4-aza-1-azoniabicyclo[2.2.2]octanyl)]octane]
concentration at which nonspecific leak began ([2]; Kv3.4 dose response): above 1 mM
